Results reported in US9896423B2, “Deuterium substituted 1-[2-(2,4-dimethyl-phenylsulfanyl)-phenyl]piperazine compound or derivatives thereof, and pharmaceutical composition and use thereof” (Jiangsu Jibeier Pharmaceutical Co. Ltd., priority 2014, dated 2018).
Several values for one entry are separate records, joined by “and”; a condition that tells them apart may be missing. Equal values may be shown once. Read-outs that look alike come from different tables or passages of the source.

Experiments:
Male SD rats = test: Rats swimming test; type: in vivo
Description: The following method is used for testing the antidepression effect of the compound of the present application. ICR mice or SD rats, gavaged for two successive weeks, were subjected to mice swimming test, mice tail suspension test and rats swimming test. See below for details of the tests and results.
Male SD rats weighing 200 to 220 g were used and they were fed with sterilized standard feed. The medicaments were the same as those in the mice tail suspension test, but the dosage administered to rats was half of that to mice.
Drug solution preparation: Since the dosage applied on rats was 1 ml/100 g body weight, the medicament solutions used in this test had the same concentrations as those used on mice.
The apparatus was the same as that in the […].
The rats were fasted for 4 hours, put in a round glass tank (ø 18 cm×h 40 cm, with water of 15 cm depth and at a temperature of 25° C.), and were allowed to swim for 15 min. One tank accommodated one rat at a time. The tank was refilled with clean water for another rat after one rat finished swimming. The rats were dried with a hot-air blower after swimming.
The forty rats were divided into 4 groups, each of which has 10 rats, according to the Excel random grouping.
The medicaments were correspondingly administered 1 ml/100 g body weight by gavage, once a day, to the animals in each test group for 14 successive days. The rat swimming test was performed one hour later after the last administration.
The data was given as “average±standard deviation” (x±s). One-way analysis of variance (ANOVA) was used for data difference statistics. Differences among the groups were determined by P<0.05.

[1] = Pharmacokinetic test in rats, intravenous injection; type: in vivo, SD rats; conditions: for Concentrations in Plasma of Rats after Intravenous Injection / concentration at 0.05 h / concentration at 0.133 h / concentration at 4 h / concentration at 6 h / concentration at 9 h / concentration at 12 h / concentration at 24 h / concentration at 0.25 h / concentration at 0.5 h / concentration at 1 h / concentration at 2 h / concentration at 3 h: 2 mg/kg iv; for concentration at 0.05 h / concentration at 0.133 h / concentration at 4 h / concentration at 6 h / concentration at 9 h / concentration at 12 h / concentration at 24 h / concentration at 0.25 h / concentration at 0.5 h / concentration at 1 h / concentration at 2 h / concentration at 3 h: intravenous; for concentration at 0.25 h / concentration at 0.5 h / concentration at 1 h / concentration at 2 h / concentration at 3 h: Sprague-Dawley
Description: The preferred compound of the present disclosure was assessed in rats for its pharmacokinetic profile.
SD rats, male and female, weighing 150 to 250 g
Mobile phase: 10 mM ammonium formate aqueous solution:methanol=15:85
The ionization source was electrospray ionization source. The detection mode was positive mode. Multiple reaction monitoring (MRM) was used as the scanning mode. The ion reaction for the quantitative analysis was the following: m/z was 305.2\150.0 for XX, and 256.1\167.1 for diphenhydramine (the internal standard).
Four male SD rats were taken. The dosage was calculated as 5 mL/kg body weight and 2 mg/kg. XX or YY was dissolved in DMSO (3% of a total volume) and castor oil (3% of the total volume) was added to the solution, followed by agitating with a vortex mixer. Subsequently, saline was added to the mixture to the total volume to afford the intravenous injection for the rats. The injections were intravenously administered to four male SD rats. Blood from the rats' orbits was collected 3 min, 8 min, 15 min, 30 min, 1 hr, 2 hr, 3 hr, 4 hr, 6 hr, 9 hr, 12 hr and 24 hr later after the injection, respectively.
After the blood collection, the tubes were immediately gently turned upside down at least five times to ensure sufficient mixing, and placed on ice. Heparin was added for anticoagulation. The samples were centrifuged at 8000 rpm for 5 min to separate serum from erythrocyte. The serum was transferred with a pipettor to 2 mL polypropylene (PP) tubes, which were marked with the name of the compound and the time points, and stored in a refrigerator at −40° C. before LC-MS analysis. Samples with high concentrations were diluted with rat blank plasma.
2.5 μL of Meth-H2O and 5 μL of the internal standard solution (20 ng/mL, IS) were added to 50 μL of the plasma. Subsequently, 150 μL of methanol was added to the mixture to precipitate protein and the samples were then centrifuged at 13000 rpm for 5 min. The upper organic phase was taken out, filtrated with a 0.22 μM microporous membrane, and 2 μL of the sample was injected for the LC-MS analysis.

[2] = rats, iv 2 mg/kg, individual rats, 2 mg/kg

For `Cc1ccc(Sc2ccccc2N2CCNCC2)c(C)c1` [YY, 1-[2-(2,4-dimethyl-phenylsulfanyl)-phenyl]piperazine], the “effect on length of time that the rats stopped swimming vs blank control” value (Male SD rats; 1.5 mg/kg gavage, 14 days) was “did not shorten”, the “Duration without Move within 5 min” value (Male SD rats; rats swimming, gavage 14 days, 1.5 mg/kg, n = 10, x ± s) was 267.8 ± 27.0 s and the “Concentrations in Plasma of Rats after Intravenous Injection” value (from here on “Concentrations in Plasma of Rats”) ([1]; 0.05 h after administration, individual rats) was 123.2 ng/mL and 127.2 ng/mL. For the same compound, the “Concentrations in Plasma of Rats” value ([1]; 0.133 h, individual rats) was 89 ng/mL and 85.9 ng/mL, the “Concentrations in Plasma of Rats” value ([1]; 0.25 h, individual rats) was 78.8 ng/mL and 77.3 ng/mL and the “Concentrations in Plasma of Rats” value ([1]; 0.5 h, individual rats) was 76.9 ng/mL and 71.3 ng/mL. The “Concentrations in Plasma of Rats” value ([1]; 1 h, individual rats) was 73.3 ng/mL and 68.6 ng/mL, the “Concentrations in Plasma of Rats” value ([1]; 2 h, individual rats) was 69.5 ng/mL and 68.1 ng/mL and the “Concentrations in Plasma of Rats” value ([1]; 3 h, individual rats) was 53.4 ng/mL and 49.8 ng/mL. The “Concentrations in Plasma of Rats” value ([1]; 4 h, individual rats) was 38.5 ng/mL and 27.6 ng/mL, the “Concentrations in Plasma of Rats” value ([1]; 6 h, individual rats) was 28.4 ng/mL and 25.8 ng/mL and the “Concentrations in Plasma of Rats” value ([1]; 9 h, individual rats) was 16.1 ng/mL and 18.6 ng/mL. For the same compound, the “Concentrations in Plasma of Rats” value ([1]; 12 h, individual rats) was 7.86 ng/mL and 7.50 ng/mL, the “Concentrations in Plasma of Rats” value ([1]; 24 h, individual rats) was 2.57 ng/mL and 2.89 ng/mL and the concentration at 0.05 h ([1]; male, SD, rat, plasma, 2 mg/kg, 0.05 h, mean, read-out: Concentrations in Plasma of Rats after Intravenous Injection, Mean ± SD) was 214 ± 38.9 ng/mL. For the same compound, the concentration at 0.05 h ([1]; male, SD, rat, plasma, 2 mg/kg, 0.05 h after administration, individual rats, read-out: Concentrations in Plasma of Rats after Intravenous Injection) was 134 ng/mL, the concentration at 0.133 h ([1]; male, SD, rat, plasma, 2 mg/kg, 0.133 h, individual rats, read-out: Concentrations in Plasma of Rats after Intravenous Injection) was 86.5 ng/mL and the concentration at 0.133 h ([1]; male, SD, rat, plasma, 2 mg/kg, 0.133 h, mean, read-out: Concentrations in Plasma of Rats after Intravenous Injection, Mean ± SD) was 170 ± 7.8 ng/mL. For the same compound, the concentration at 4 h ([1]; male, SD, rat, plasma, 2 mg/kg, 4 h, individual rats, read-out: Concentrations in Plasma of Rats after Intravenous Injection) was 27.2 ng/mL, the concentration at 4 h ([1]; male, SD, rat, plasma, 2 mg/kg, 4 h, mean, read-out: Concentrations in Plasma of Rats after Intravenous Injection, Mean ± SD) was 40.9 ± 3.4 ng/mL and the concentration at 6 h ([1]; male, SD, rat, plasma, 2 mg/kg, 6 h, individual rats, read-out: Concentrations in Plasma of Rats after Intravenous Injection) was 25.8 ng/mL. It also gave a concentration at 6 h ([1]; male, SD, rat, plasma, 2 mg/kg, 6 h, mean, read-out: Concentrations in Plasma of Rats after Intravenous Injection, Mean ± SD) of 33.1 ± 3.43 ng/mL, a concentration at 9 h ([1]; male, SD, rat, plasma, 2 mg/kg, 9 h, individual rats, read-out: Concentrations in Plasma of Rats after Intravenous Injection) of 14.9 ng/mL and a concentration at 9 h ([1]; male, SD, rat, plasma, 2 mg/kg, 9 h, mean, read-out: Concentrations in Plasma of Rats after Intravenous Injection, Mean ± SD) of 19.5 ± 1.49 ng/mL. The concentration at 12 h ([1]; male, SD, rat, plasma, 2 mg/kg, 12 h, individual rats, read-out: Concentrations in Plasma of Rats after Intravenous Injection) was 8.44 ng/mL, the concentration at 12 h ([1]; male, SD, rat, plasma, 2 mg/kg, 12 h, mean, read-out: Concentrations in Plasma of Rats after Intravenous Injection, Mean ± SD) was 7.85 ± 0.62 ng/mL and the concentration at 24 h ([1]; male, SD, rat, plasma, 2 mg/kg, 24 h, individual rats, read-out: Concentrations in Plasma of Rats after Intravenous Injection) was 3.38 ng/mL. The concentration at 24 h ([1]; male, SD, rat, plasma, 2 mg/kg, 24 h, mean, read-out: Concentrations in Plasma of Rats after Intravenous Injection, Mean ± SD) was 4.07 ± 0.05 ng/mL, the AUC(0-inf) ([1]; male, SD, rat, plasma, iv, 2 mg/kg, rats, iv 2 mg/kg, XX n = 4, YY n = 3, read-out: AUC0-∞, Mean ± SD) was 654 ± 23.9 ng·h/mL and the Cmax ([1]; male, SD, rat, plasma, iv, 2 mg/kg, rats, iv 2 mg/kg, XX n = 4, YY n = 3, read-out: Cmax, Mean ± SD) was 214 ± 38.9 ng/mL. It also gave an MRT inf ([1]; male, SD, rat, plasma, iv, 2 mg/kg, rats, iv 2 mg/kg, XX n = 4, YY n = 3, read-out: MRT0-∞, Mean ± SD) of 6.42 ± 0.19 h, a Vd ([1]; male, SD, rat, plasma, iv, 2 mg/kg, rats, iv 2 mg/kg, XX n = 4, YY n = 3, read-out: Vz, Mean ± SD) of 26.6 ± 0.52 L/kg and a half-life ([1]; male, SD, rat, plasma, iv, 2 mg/kg, rats, iv 2 mg/kg, XX n = 4, YY n = 3, read-out: t1/2, Mean ± SD (converted)) of 6.03 ± 0.27 h. For the same compound, the AUC(0-t) ([1]; male, SD, rat, plasma, iv, 2 mg/kg, rats, iv 2 mg/kg, individual rats 1-3 (Table 11), read-out: AUC0-t) was 594 ng·h/mL, the AUC(0-inf) ([1]; male, SD, rat, plasma, iv, 2 mg/kg, rats, iv 2 mg/kg, individual rats, read-out: AUC0-∞) was 628 ng·h/mL and the Cmax ([1]; male, SD, rat, plasma, iv, 2 mg/kg, rats, iv 2 mg/kg, individual rats, read-out: Cmax) was 225 ng/mL. It also gave an MRT inf ([1]; male, SD, rat, plasma, iv, 2 mg/kg, rats, iv 2 mg/kg, individual rats, read-out: MRT0-∞) of 6.56 h, a Vd ([1]; male, SD, rat, plasma, iv, 2 mg/kg, rats, iv 2 mg/kg, individual rats, read-out: Vz) of 26.3 L/kg and a half-life ([1]; male, SD, rat, plasma, iv, 2 mg/kg, rats, iv 2 mg/kg, individual rats, read-out: t1/2 (converted)) of 5.72 h. It also gave an AUC(0-t) ([1]; male, SD, rat, plasma, iv, 2 mg/kg, rats, iv 2 mg/kg, n = 3 (Table 11), read-out: AUC0-t, Mean ± SD) of 619 ± 22.2 ng·h/mL, a concentration at 0.25 h ([1]; male, rat, plasma, 2 mg/kg, 0.25 h, individual rats, read-out: Concentrations in Plasma of Rats after Intravenous Injection) of 78.1 ng/mL and a concentration at 0.25 h ([1]; male, rat, plasma, 2 mg/kg, 0.25 h, mean, read-out: Concentrations in Plasma of Rats after Intravenous Injection, Mean ± SD) of 137 ± 6.05 ng/mL. The concentration at 0.5 h ([1]; male, rat, plasma, 2 mg/kg, 0.5 h, individual rats, read-out: Concentrations in Plasma of Rats after Intravenous Injection) was 76.6 ng/mL, the concentration at 0.5 h ([1]; male, rat, plasma, 2 mg/kg, 0.5 h, mean, read-out: Concentrations in Plasma of Rats after Intravenous Injection, Mean ± SD) was 124 ± 13 ng/mL and the concentration at 1 h ([1]; male, rat, plasma, 2 mg/kg, 1 h, individual rats, read-out: Concentrations in Plasma of Rats after Intravenous Injection) was 72.2 ng/mL. The concentration at 1 h ([1]; male, rat, plasma, 2 mg/kg, 1 h, mean, read-out: Concentrations in Plasma of Rats after Intravenous Injection, Mean ± SD) was 94.2 ± 6.06 ng/mL, the concentration at 2 h ([1]; male, rat, plasma, 2 mg/kg, 2 h, individual rats, read-out: Concentrations in Plasma of Rats after Intravenous Injection) was 60.7 ng/mL and the concentration at 2 h ([1]; male, rat, plasma, 2 mg/kg, 2 h, mean, read-out: Concentrations in Plasma of Rats after Intravenous Injection, Mean ± SD) was 86.4 ± 16.8 ng/mL. For the same compound, the concentration at 3 h ([1]; male, rat, plasma, 2 mg/kg, 3 h, individual rats, read-out: Concentrations in Plasma of Rats after Intravenous Injection) was 49.6 ng/mL, the concentration at 3 h ([1]; male, rat, plasma, 2 mg/kg, 3 h, mean, read-out: Concentrations in Plasma of Rats after Intravenous Injection, Mean ± SD) was 67 ± 10.2 ng/mL and the “CL, Mean ± SD” value ([1]; rats, iv 2 mg/kg, XX n = 4, YY n = 3) was 3.06 ± 0.11 L/h/k. For the same compound, the AUC(0-t) ([1]; rats, iv 2 mg/kg, individual rats 1-3 (Table 11), 2 mg/kg) was 637.9 ng·h/mL and 624.3 ng·h/mL, the “AUC0-∞” value [1, 2] was 674.6 ng·h/mL and 660.5 ng·h/mL and the CL [1, 2] was 3.19 L/h/k and 2.97 L/h/k and 3.03 L/h/k. For the same compound, the Cmax [1, 2] was 246.0 ng/mL and 170.6 ng/mL, the “MRT0-∞” value [1, 2] was 6.20 h and 6.50 h and the Vz [1, 2] was 27.2 L/kg. For the same compound, the t1/2 [1, 2] was 6.15 h and 6.22 h.
